We go through seven compounds from US8648113B2, “Mixture and compounds from mycelia of Antrodia camphorata and use thereof” (Simpson Biotech Co., Ltd., priority 2004, dated 2014).

The test system of series [1] is LLC (Lewis lung carcinoma) cell line. Briefly: Cytotoxic assay, in vitro LLC tumor cell assay (SRB method). The conditions noted are these: for 50% Growth Inhibition (ED50): SRB method. (In general: Sulforhodamine B stains cellular protein and so reports cell mass.)
Series [2] has as its system Wistar derived male or female rats. As to the kind of experiment: Cholinergic Agonism, Central/Peripheral in rats (chewing, salivation). It counts as in vivo, rat. Also noted: key to Peripheral: Salivation: +: exhibiting salivation. The conditions noted are these: 30 mg/kg IP.
Series [3] relates to Long Evans derived rats, carrageenan-induced paw edema. As to the kind of experiment: Inflammation, Carrageenan in rats (hind paw edema). Type of series: in vivo, rat. The note with it: 150 mg/kg PO; for Paw Volume Diff: R.P. minus L.P.; for Paw Volume L.P.: left (not injected) hindpaw; for Paw Volume R.P.: right (injected) hindpaw, 3 hours. As to the method: Hind paw edema, as a measure of inflammation, was recorded 3 hours after carrageenan administration using a plethysmometer with water cell (25 mm diameter). Reduction of hind paw edema by 30 percent or more (30%) indicates significant acute anti-inflammatory activity. […] Reduction of hindpaw edema by 30 percent or more (30%), shown in parenthesis, indicates significant acute anti-inflammatory activity. • 4. […] Anticancer Research 19: 1027-1032, 1999)

Series [4] deals with ICR derived male mice on high fat diet. Briefly: Cholesterol, Serum (Total, HDL, Total/HDL Ratio), Diet-Induced in mice. Type of series: in vivo, mouse. The conditions noted are these: 100 mg/kg × 3 PO. As to the method:
Groups of 5 ICR derived male mice weighing 22±2 g were kept on a high fat diet (g/100 g: coconut oil, 8; cholesterol, 1.0; cholic acid, 0.3; lard 2; standard chow 88.7) for 7 days to induce hypercholesterolemia. Test substance was administered orally on days 5, 6 and 7. After fasting overnight, serum was obtained from each mouse and assayed for total cholesterol (Total), high density lipoprotein (HDL) and percent change in Total/HDL. A decrease of 20 percent or more (20%) in serum Total or increase of 20 percent or more (≧20%) in serum HDL or decrease of 40% or more (≧40%) in the Total/HDL ratio relative to vehicle treated control animals is considered significant.
Vehicle, test substance or reference positive compound was administered orally (PO) on days 5, 6 and 7 after being fed a high cholesterol diet. Twenty-four hours after the third dose, the overnight-fasted test animals were sacrificed for assessing serum total cholesterol (Total) and high density lipoprotein (HDL). Decrease of 20 percent or more (20%) in serum Total or increase of 20 percent or more (20%) in serum HDL or decrease of 40% or more (40%) in the Total/HDL ratio is considered significant. • 2. Hepatic Injury, D-Galactosamine (Wrobel et al., J. Med. Chem. 41: 1084, 1998)

Series [5] has as its system Wistar derived male rats, D-galactosamine induced hepatic injury. Briefly: Hepatic Injury, D-Galactosamine in rats. Type of series: in vivo, rat. The note with it: 300 mg/kg × 3 PO (Guanine, reference). As for the experimental part: Groups of 5 Wistar derived male rats weighing 200±20 g were used. Each animal was treated with a single injection of D-galactosamine (500 mg/kg, IP) Test substance was administered orally at 0.5 hour before and 4 hours as well as 8 hours after D-galactosamine administration and animals were sacrificed 24 hours later. […] Reduction in ALT or AST activity by 30 percent or more (30%), relative to the vehicle treated control animal indicates significant protection.
Test substance and vehicle were administered orally at 0.5 hour before and 4, 8 hours after a single dose of galactosamine (500 mg/kg, IP). The rats were sacrificed 24 hours after galactosamine injection and the ALT and AST values were determined A reduction of 30% in the ALT and AST relative to the vehicle group is considered significant. • 3. Winter et al., Inflammation, Carrageenan, Proc. Soc.

The test system of series [6] is B16-F0 murine melanoma cells. As to the kind of experiment: Tumor, Syngeneic, Melanoma, B16-F0 Cell in C57BL/6J mice. The note with it: B16-F0 in C57BL/6J mice, 2 mg/kg × 6 IP; for Survival Time, Days of Post-treatment: monitored to day 45.
The mark [7] stands for this setting: 30-60 min after dosing, individual animals.
The mark [8] stands for this setting: positive in 2 or more of 3 = activity.
Setting [9] is: Ave. of 3 rats (Tables 12 and 13: two experiments), 150 mg/kg.
Where [10] appears, read: individual rats (Tables 12 and 13: two experiments), 150 mg/kg.

Several values for one entry are separate records, joined by “and”; a condition that tells them apart may be missing. Identical values can stand only once. Marks after values point to notes of the source that are not given here.

For `COc1cccc2c1C(=O)c1c(O)c3c(c(O)c1C2=O)C[C@@](O)(C(=O)CO)C[C@@H]3O[C@H]1C[C@H](N)[C@H](O)[C@H](C)O1` [Adriamycin], in series [1], the “50% Growth Inhibition (ED50)” value amounted to 0.14 µg/mL.

Consider `COC(=O)C1=CCCN(C)C1` [Arecoline-HBR], for which, in series [2] (setting [7]), the “Central: Chewing” value is recorded as “+ (exhibiting more than 10 seconds of chewing behavior (mouth and/or tongue movements) measured cumulatively)” and the “Peripheral: Salivation” value was “+”. In series [2] (setting [8]), the “Central: Score (positive animals of 3)” value was “(3/3)” and the “Peripheral: Score (positive animals of 3)” value was “(3/3)”.

As for `CC(=O)Oc1ccccc1C(=O)O` [Aspirin], in series [3] (setting [9]), the “Paw Volume Diff” value was 50 ×0.01 ml and 52 ×0.01 ml; the “Paw Volume R.P.” value was 154 ×0.01 ml and 155 ×0.01 ml. Further, in series [3] (setting [10]), the “Paw Volume Diff” value is 50 ×0.01 ml and 44 ×0.01 ml and 57 ×0.01 ml and 43 ×0.01 ml and 48 ×0.01 ml and 65 ×0.01 ml; the “Paw Volume L.P.” value is 102 ×0.01 ml and 106 ×0.01 ml and 103 ×0.01 ml and 101 ×0.01 ml and 104 ×0.01 ml; the “Paw Volume R.P.” value was 152 ×0.01 ml and 146 ×0.01 ml and 163 ×0.01 ml and 149 ×0.01 ml and 169 ×0.01 ml. Besides, in series [3] (Ave. of 3 rats (Tables 12 and 13: two experiments)), the “Paw Volume L.P.” value amounted to 103 ×0.01 ml.

Consider `CC(C)(Oc1ccc(CCNC(=O)c2ccc(Cl)cc2)cc1)C(=O)O` [Benzafibrate], for which, in series [4] (Ave. of 5 mice), the “HDL Ave.” value is given as 113, the “Total (serum total cholesterol) Ave.” value is recorded as 228 and the “Total/HDL Ave.” value was determined as 2.02. In series [4] (individual mice, 100 mg/kg), the “HDL Indiv.” value was 91 and 120 and 133 and 123 and 97; the “Total (serum total cholesterol) Indiv.” value is 230 and 214 and 225 and 231 and 242; the “Total/HDL Indiv” value was 2.53 and 1.78 and 1.69 and 1.88 and 2.49. In series [4] (relative to vehicle), the “HDL % Dce” value is recorded as “(43) %”, the “Total % Dce” value is given as “(37) %” and the “Total/HDL % Dce” value is “(56) %”.

For `CC(C)=CCOc1ccc(C2=C(CC(C)C)C(=O)NC2=O)cc1` [Compound 2, 3-Isobutyl-4-[4-(3-methyl-2-butenyloxy)phenyl]-1H-pyrrole-2,5-dione], in series [1], the “cytotoxic activity (in words)” value was “cytotoxic” and the “50% Growth Inhibition (ED50)” value was found to be 3.6 µg/mL.

With `Nc1nc2nc[nH]c2c(=O)[nH]1` [Guanine], in series [5] (individual rats, 300 mg/kg), the “Serum ALT” value was 508 U/L and 532 U/L and 412 U/L and 436 U/L and 636 U/L; the “Serum AST” value was 656 U/L and 912 U/L and 776 U/L and 652 U/L and 1028 U/L. Besides, in series [5] (relative to vehicle), the “Serum ALT Dec. %” value is reported as “(34) %” and the “Serum AST Dec. %” value was “(33) %”.

As to `CO[C@@]12[C@H](COC(N)=O)C3=C(C(=O)C(C)=C(N)C3=O)N1C[C@@H]1N[C@@H]12` [Mitomycin], in series [6], the “Survival Time T/C (%)” value is listed as 125* %; the “Tumor Weight T/C(%), Day 1” value was found to be 100%; the “Tumor Weight T/C(%), Day 8” value was 0* %; the “Tumor Weight T/C(%), Day 11” value is 16* %. Further, in series [6], the “Tumor Weight T/C(%), Day 15” value is listed as 27* %; the “Tumor Weight T/C(%), Day 18” value is on record as 32* %; the “Tumor Weight T/C(%), Day 22” value was 25* %. Besides, in series [6] (Mean ± SEM), the “Body Weight, Day 1” value is reported as 21.4 ± 1.1 g; the “Body Weight, Day 8” value was 22.2 ± 0.8 g; the “Body Weight, Day 11” value stood at 22.0 ± 1.1 g; the “Body Weight, Day 15” value is on record as 23.0 ± 1.0 g. Also, in series [6] (Mean ± SEM), the “Body Weight, Day 18” value is recorded as 24.0 ± 1.1 g; the “Body Weight, Day 22” value worked out at 26.3 ± 1.9 g; the “Tumor Weight, Day 1” value stood at 0 mg; the “Tumor Weight, Day 8” value is on record as 0 ± 0 mg. In series [6] (Mean ± SEM), the “Tumor Weight, Day 11” value was determined as 34 ± 15 mg; the “Tumor Weight, Day 15” value was 119 ± 44 mg; the “Tumor Weight, Day 18” value stood at 391 ± 142 mg; the “Tumor Weight, Day 22” value is listed as 587 ± 260 mg. For the same compound, in series [6] (Mean ± SEM), the “Survival Time, Days of Post-treatment” value is 34.0 ± 4.7 days. For the same compound, in series [6] (individual mice), the “Body Weight, Day 8” value was 20 g; the “Body Weight, Day 15” value is listed as 20 g; the “Body Weight, Day 22” value is listed as 30 g; the “Tumor Weight, Day 1” value was 0 mg. The “Tumor Weight, Day 8” value in series [6] (individual mice) was found to be 0 mg. Besides, in series [6] (individual mice, 2 mg/kg), the “Body Weight, Day 1” value is 25 g and 22 g (2×) and 19 g (2×); the “Body Weight, Day 8” value is 25 g and 22 g (2×) and 21 g; the “Body Weight, Day 11” value is 26 g and 22 g (2×) and 21 g and 19 g; the “Body Weight, Day 15” value was 25 g (2×) and 21 g and 24 g. Moreover, in series [6] (individual mice, 2 mg/kg), the “Body Weight, Day 18” value is 24 g and 27 g and 22 g and 26 g and 21 g; the “Body Weight, Day 22” value was 27 g (2×) and 21 g and Died; the “Tumor Weight, Day 11” value is 0 mg (2×) and 64 mg and 68 mg and 41 mg; the “Tumor Weight, Day 15” value is 36 mg and 136 mg and 0 mg and 213 mg and 207 mg. In series [6] (individual mice, 2 mg/kg), the “Tumor Weight, Day 18” value is 256 mg and 849 mg and 0 mg and 525 mg and 327 mg; the “Tumor Weight, Day 22” value was 437 mg and 1248 mg and 0 mg and 663 mg and Died; the “Survival Time, Days of Post-treatment” value was 45^a day (2×) and 28 day and 30 day and 22 day.
